Ten compounds from ChEMBL document CHEMBL5532682, “Recent advances of tryptanthrin and its derivatives as potential anticancer agents” (RSC Med Chem, 2024) can be followed below.

For data set [1], the system named is A549. The data set can be described thus: Antiproliferative activity against human A549 cells assessed as inhibition of cell viability. Type of data set: functional, cell-based.
Data set [2] concerns A549/CDDP. The data set can be described thus: Antiproliferative activity against human A549/DDP cells assessed as inhibition of cell viability. The format is functional, cell-based.
Data set [3] in a line: Antiproliferative activity against human HL7702 cells assessed as inhibition of cell viability. Type of data set: toxicity, cell-based. Conditions: HL7702 (L02) cells.
Data set [4] concerns MCF7. Put plainly: Antiproliferative activity against human MCF7 cells assessed as inhibition of cell growth. The format is functional, cell-based.
Data set [5] deals with A549. The data set can be described thus: Antiproliferative activity against human A549 cells assessed as inhibition of cell growth. Type of data set: functional, cell-based.
The subject of data set [6] is HeLa. The data set can be described thus: Antiproliferative activity against human HeLa cells assessed as inhibition of cell growth. Type of data set: functional, cell-based.
Data set [7] in a line: Cytotoxicity against human HEK293 cells assessed as inhibition of cell growth. The format is toxicity, cell-based.
In data set [8] the test system is K562. The data set can be described thus: Antiproliferative activity against human K562 cells incubated for 48 hrs. Type of data set: functional, cell-based. The note with it: K562, 48 h.
Data set [9] concerns HeLa. The data set can be described thus: Antiproliferative activity against human HeLa cells incubated for 48 hrs. Type of data set: functional, cell-based.
The test system of data set [10] is CT26. The data set can be described thus: Antiproliferative activity against mouse CT26 cells incubated for 48 hrs. Type of data set: functional, cell-based. Conditions: CT26, 48 h.
The subject of data set [11] is K562. The data set can be described thus: Antiproliferative activity against human K562 cells. Type of data set: functional, cell-based.
Data set [12] concerns Hep 3B2. The data set can be described thus: Antiproliferative activity against human Hep3B cells measured after 48 hrs by MTT assay. Type of data set: functional, cell-based.
Data set [13] has as its system NCI/ADR-RES. The data set can be described thus: Growth inhibition of human MCF7ADR cells assessed as reduction in cell viability. The format is functional.
Data set [14] concerns U-251. Put plainly: Growth inhibition of human U-251 cells assessed as reduction in cell viability. The format is functional.
Data set [15] relates to SW-620. Put plainly: Growth inhibition of human SW620 cells assessed as reduction in cell viability. Type of data set: functional.
In data set [16] the test system is NCI-H522. Put plainly: Growth inhibition of human NCI-H522 cells assessed as reduction in cell viability. Type of data set: functional.
Data set [17] relates to M14. The data set can be described thus: Growth inhibition of human M14 cells assessed as reduction in cell viability. The format is functional.
For data set [18], the system named is SK-OV-3. The data set can be described thus: Growth inhibition of human SK-OV-3 cells assessed as reduction in cell viability. The format is functional.
The subject of data set [19] is DU-145. The data set can be described thus: Growth inhibition of human DU-145 cells assessed as reduction in cell viability. Type of data set: functional.
In data set [20] the test system is A498. Put plainly: Growth inhibition of human A498 cells assessed as reduction in cell viability. The format is functional.
Data set [21] has as its system HL-60. The data set can be described thus: Anticancer activity against human HL-60 cells measured after 48 hrs. The format is functional, cell-based. Conditions: HL-60, 48 h.
Data set [22] relates to MOLT-4. The data set can be described thus: Anticancer activity against human MOLT-4 cells measured after 48 hrs. Type of data set: functional, cell-based. Conditions: MOLT-4, 48 h.
The test system of data set [23] is K562. Put plainly: Anticancer activity against human K562 cells measured after 48 hrs. Conditions: K562, 48 h. Type of data set: functional, cell-based.
For data set [24], the system named is T-24. The data set can be described thus: Antiproliferative activity against human T24 cells measured after 48 hrs by MTT assay. The format is functional, cell-based. The note with it: T-24, 48 h.
Data set [25] relates to Bel-7402. Put plainly: Antiproliferative activity against human Bel-7402 cells measured after 48 hrs by MTT assay. Type of data set: functional, cell-based. The note with it: Bel-7402, 48 h.
Data set [26] has as its system MGC-803. The data set can be described thus: Antiproliferative activity against human MGC-803 cells measured after 48 hrs by MTT assay. The note with it: MGC-803, 48 h. The format is functional, cell-based.
The test system of data set [27] is HepG2. The data set can be described thus: Antiproliferative activity against human HepG2 cells measured after 48 hrs by MTT assay. The format is functional, cell-based. Conditions: HepG2, 48 h.
Data set [28] can be described thus: Antiproliferative activity against human HL7702 cells measured after 48 hrs by MTT assay. Conditions: HL7702 (L02) cells. The format is toxicity, cell-based.
The test system of data set [29] is T-24. Put plainly: Antiproliferative activity against human T24 cells assessed as inhibition of cell growth. Type of data set: functional, cell-based.
In data set [30] the test system is A549. Put plainly: Antiproliferative activity against human A549 cells assessed as cell growth inhibition. Type of data set: functional, cell-based.
In data set [31] the test system is SK-OV-3. The data set can be described thus: Antiproliferative activity against human SK-OV-3 cells assessed as inhibition of cell growth. The format is functional, cell-based.
Data set [32] deals with HeLa. The data set can be described thus: Antiproliferative activity against human HeLa cells assessed as cell growth inhibition. The format is functional, cell-based.
Data set [33] relates to HepG2. Put plainly: Antiproliferative activity against human HepG2 cells assessed as inhibition of cell growth. Type of data set: functional, cell-based.
The nature of data set [34]: Antiproliferative activity against human HL7702 cells assessed as inhibition of cell growth. The format is toxicity, cell-based. The note with it: HL7702 (L02) cells.
Data set [35] is described as follows: Antiproliferative activity against mouse MC3T3-E1 cells. The format is toxicity, cell-based.
Data set [36] relates to A549. The data set can be described thus: Antiproliferative activity against human A549 cells. Type of data set: functional, cell-based.
Data set [37] concerns A549. The data set can be described thus: Antiproliferative activity against human A549 cells measured after 48 hrs by MTT assay. The format is functional, cell-based. Conditions: A549, 48 h.
Data set [38] deals with HCT-116. The data set can be described thus: Antiproliferative activity against human HCT-116 cells measured after 48 hrs by MTT assay. The format is functional, cell-based. The note with it: HCT-116, 48 h.
The subject of data set [39] is MDA-MB-231. The data set can be described thus: Antiproliferative activity against human MDA-MB-231 cells measured after 48 hrs by MTT assay. Type of data set: functional, cell-based. The note with it: MDA-MB-231, 48 h.
Data set [40] has as its system A549. Put plainly: Antiproliferative activity against human A549 cells incubated by 48 hrs by MTT assay. Type of data set: functional, cell-based. Conditions: A549, 48 h.
Data set [41] deals with K562. The data set can be described thus: Antiproliferative activity against human K562 cells incubated by 48 hrs by MTT assay. The format is functional, cell-based. The note with it: K562, 48 h.
For data set [42], the system named is HepG2. Put plainly: Antiproliferative activity against human HepG2 cells incubated by 48 hrs by MTT assay. The format is functional, cell-based. The note with it: HepG2, 48 h.
In data set [43] the test system is PC-3. Put plainly: Antiproliferative activity against human PC-3 cells incubated by 48 hrs by MTT assay. Type of data set: functional, cell-based. Conditions: PC-3, 48 h.
In data set [44] the test system is MCF7. The data set can be described thus: Antiproliferative activity against human MCF7 cells. The format is functional, cell-based.
For data set [45], the system named is NCI/ADR-RES. Put plainly: Antiproliferative activity against human MCF7ADR cells. The format is functional, cell-based.
Data set [46] deals with WEHI3B. The data set can be described thus: Antiproliferative activity against mouse WEHI3B cells assessed as inhibition of cell growth measured after 48 hrs. The format is functional, cell-based.

Where only a bound is given, the exact number is not on record here.

Consider `O=C(CCCCN(Cc1ccccn1)Cc1ccccn1)Nc1ccc2c(c1)C(=O)c1nc3ccccc3c(=O)n1-2`, for which the IC50 in data set [1] was 63.7 µM; in data set [2] it was 52.4 µM; in data set [3], greater than 100 µM.

On to `N#Cc1ccc(-c2csc(N/N=C3/c4ccccc4N4C(=O)C5C=CC=CC5=NC34)n2)cc1` (stereo not given), for which the IC50 is 6.05 µM in [4], 8.18 µM in data set [5], 7.08 µM in [6] and 92.3 µM in data set [7].

Turning to `Cc1ccc2c(c1)[C@@]1(N[C@H](C(=O)NCC(=O)O)[C@]3(c4ccccc4)[C@@H](c4ccccc4)[C@]13c1ccccc1)c1nc3ccccc3c(=O)n1-2`, the IC50 in data set [8] was 10.2 µM; in data set [9], greater than 50 µM; in data set [10], greater than 50 µM.

Consider `O=C1C2C=CC=CC2=NC2/C(=N\Nc3nc(-c4ccc(Cl)cc4)cs3)c3ccccc3N12` (stereo not given), for which the IC50 in [4] stood at 18.2 µM; in [5] it was 11.1 µM; in data set [6], 21.7 µM; in data set [7], 80.9 µM.

In the case of `O=C(O)CNC(=O)[C@H]1N[C@@]2(c3ccccc3-n3c2nc2ccccc2c3=O)[C@@]2(c3ccccc3)[C@H](c3ccccc3)[C@@]12c1ccccc1`, the results for the IC50 in [8], in data set [9] and in data set [10] were greater than 50 µM, 33 µM and 10 µM, respectively.

On to `CC(C)NC(=O)[C@@H]1[C@@]2(c3ccccc3)[C@H]3CCCN3[C@@]3(c4ccccc4-n4c3nc3ccccc3c4=O)[C@@]12c1ccccc1`, for which the IC50 is 4.8 µM in data set [8], greater than 50 µM in [9], greater than 50 µM in data set [10] and 4.8 µM in data set [11].

The compound `Nc1ccc2c(c1)C(=O)c1nc3ccccc3c(=O)n1-2` had a 50% inhibitory concentration (IC50) in [12] of 5.8 µM. For the same compound, the GI50 in [13] came to 1 µM; in data set [14] it was 4.5 µM; in data set [15], 25 µM; in data set [16] it was 48 µM; in [17] it was 15 µM; in data set [18], 25 µM. Moreover, the GI50 in [19] was 8 µM; in data set [20], 2 µM.

For the compound `O=C1c2cc(Br)ccc2-n2c1nc1ccccc1c2=O`, the IC50 in data set [12] is 2 µM; in data set [21] it was 2 µM; in [22], 8 µM; in data set [23], 5 µM; in [24] it was 15.1 µM; in data set [25], 27.2 µM. The IC50 in data set [26] is 59.1 µM; in data set [27], 99.6 µM; in data set [29], 94.1 µM; in data set [30], 89.6 µM; in [31], 89.6 µM; in [32], greater than 150 µM. Also, the IC50 in [33] is 89.6 µM; in data set [34] it was 50.1 µM. For the same compound, the GI50 in data set [13] turned out to be 5 µM; in data set [14], 0.7 µM; in [15], 4.8 µM; in data set [16], 5 µM; in data set [17] it was 5 µM; in data set [19] it was 2 µM. In addition, the IC50 at 48 h in data set [28] amounted to 50.1 µM.

For the compound `COc1cc(/C=C/C(=O)CC(=O)/C=C/c2ccc(O)c(OC)c2)ccc1O` [CURCUMIN], the values for the IC50 in data set [1], in [2] and in data set [3] were 35.8 µM, 67.2 µM and greater than 100 µM, respectively.

Turning to `O=C1c2ccccc2-n2c1nc1ccccc1c2=O` [TRYPTANTHRIN], the IC50 in [35] is greater than 100 µM; in data set [36] it was 74.7 µM; in data set [37], 74.7 µM; in [38], 17.5 µM; in data set [39], greater than 100 µM; in [40] it was 8.25 µM. For the same compound, the IC50 in data set [41] is 12 µM; in data set [42] it was 9.51 µM; in data set [43] it was 14.5 µM; in [44], 94.2 µM; in data set [45] it was 96.4 µM; in data set [1] it was greater than 100 µM. Also, the IC50 in data set [2] is greater than 100 µM; in data set [3] it was greater than 100 µM; in data set [24], greater than 150 µM; in data set [25], 41.3 µM; in data set [26], 70.2 µM; in data set [27] it was 90.1 µM. Also, the half-inhibitory concentration (IC50) is greater than 150 µM in data set [29]; greater than 150 µM in data set [30]; 85.1 µM in data set [31]; greater than 150 µM in data set [32]; 90.1 µM in data set [33]; 90.1 µM in [34]. Also, the IC50 in data set [46] was 1.5 µM. Inhibition in data set [28] was half-maximal at 90.1 µM (IC50 at 48 h).
